Measured values as given in ChEMBL document CHEMBL4219138, “Discovery of N-aryl-N'-pyrimidin-4-yl ureas as irreversible L858R/T790M mutant selective epidermal growth factor receptor inhibitors” (Bioorg Med Chem Lett, 2018).

Assays:
[1] = molecular target: T1, Epidermal growth factor receptor (Homo sapiens, UniProt P00533, L858R/T790M); test: Inhibition of recombinant human GST-tagged EGFR L858R/T790M mutant cytoplasmic domain (668 to 1210 residues) expressed in baculovirus expression system using tyrosine04 peptide as substrate after 60 mins in presence of ATP by Z-LYTE assay
[2] = molecular target: T1, Epidermal growth factor receptor; test: Inhibition of EGFR L858R/T790M mutant phosphorylation in human NCI-H1975 cells after 1 hr by ELISA; assay type: cell-based
[3] = molecular target: T2, Epidermal growth factor receptor (Homo sapiens, UniProt P00533); test: Inhibition of recombinant human GST-tagged wild-type EGFR cytoplasmic domain (668 to 1210 residues) expressed in baculovirus expression system using tyrosine04 peptide as substrate after 60 mins in presence of ATP by Z-LYTE assay
[4] = system: NCI-H1975; test: Antiproliferative activity against human NCI-H1975 cells harboring EGFR L858R/T790M mutant after 72 hrs by MTT assay; assay type: functional, cell-based; details: NCI-H1975, 72 h
[5] = molecular target: T2, Epidermal growth factor receptor; test: Inhibition of wild-type EGFR phosphorylation in human A431 cells preincubated for 1 hr followed by EGF stimulation measured after 45 mins by ELISA; assay type: cell-based
[6] = system: A-431; test: Antiproliferative activity against human A431 cells harboring wild-type EGFR after 72 hrs by MTT assay; assay type: functional, cell-based; details: A-431, 72 h
[7] = Selectivity ratio of IC50 for human A431 cells harboring wild-type EGFR to IC50 for human NCI-H1975 cells harboring EGFR L858R/T790M mutant; assay type: functional

T2 sequence (P00533 whole entry, the tested form may be a part): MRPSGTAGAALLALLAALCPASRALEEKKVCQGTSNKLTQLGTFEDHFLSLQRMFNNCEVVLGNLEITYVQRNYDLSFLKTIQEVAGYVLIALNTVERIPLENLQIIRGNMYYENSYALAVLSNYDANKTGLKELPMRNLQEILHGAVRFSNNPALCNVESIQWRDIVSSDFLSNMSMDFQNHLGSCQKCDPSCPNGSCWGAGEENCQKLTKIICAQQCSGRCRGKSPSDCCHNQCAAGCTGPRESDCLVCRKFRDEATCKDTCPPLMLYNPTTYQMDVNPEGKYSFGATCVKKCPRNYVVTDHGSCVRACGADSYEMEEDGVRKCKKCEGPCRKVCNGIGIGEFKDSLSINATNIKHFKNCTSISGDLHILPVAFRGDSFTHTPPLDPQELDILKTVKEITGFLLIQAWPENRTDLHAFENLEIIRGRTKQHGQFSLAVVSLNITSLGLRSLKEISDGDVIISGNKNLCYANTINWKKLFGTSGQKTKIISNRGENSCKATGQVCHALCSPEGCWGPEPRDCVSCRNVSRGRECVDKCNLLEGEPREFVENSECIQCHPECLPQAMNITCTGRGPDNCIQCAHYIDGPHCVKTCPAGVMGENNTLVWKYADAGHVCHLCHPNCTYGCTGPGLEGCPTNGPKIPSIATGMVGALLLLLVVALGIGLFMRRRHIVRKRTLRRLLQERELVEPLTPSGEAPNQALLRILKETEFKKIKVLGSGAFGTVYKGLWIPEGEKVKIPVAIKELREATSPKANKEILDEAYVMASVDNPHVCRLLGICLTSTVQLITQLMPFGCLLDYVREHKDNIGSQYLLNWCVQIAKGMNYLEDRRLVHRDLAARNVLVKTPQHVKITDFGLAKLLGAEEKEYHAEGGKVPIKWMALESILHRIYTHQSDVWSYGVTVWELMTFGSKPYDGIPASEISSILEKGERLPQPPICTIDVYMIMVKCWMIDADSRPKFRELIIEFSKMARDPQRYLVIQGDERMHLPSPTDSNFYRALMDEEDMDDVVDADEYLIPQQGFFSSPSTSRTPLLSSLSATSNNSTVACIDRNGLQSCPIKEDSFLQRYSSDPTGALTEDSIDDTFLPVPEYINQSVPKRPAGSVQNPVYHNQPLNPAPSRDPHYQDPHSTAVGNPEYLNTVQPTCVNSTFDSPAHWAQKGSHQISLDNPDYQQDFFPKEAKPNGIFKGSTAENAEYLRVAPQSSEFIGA
T1 sequence (P00533 25-1210 T790M/L858R limits assumed): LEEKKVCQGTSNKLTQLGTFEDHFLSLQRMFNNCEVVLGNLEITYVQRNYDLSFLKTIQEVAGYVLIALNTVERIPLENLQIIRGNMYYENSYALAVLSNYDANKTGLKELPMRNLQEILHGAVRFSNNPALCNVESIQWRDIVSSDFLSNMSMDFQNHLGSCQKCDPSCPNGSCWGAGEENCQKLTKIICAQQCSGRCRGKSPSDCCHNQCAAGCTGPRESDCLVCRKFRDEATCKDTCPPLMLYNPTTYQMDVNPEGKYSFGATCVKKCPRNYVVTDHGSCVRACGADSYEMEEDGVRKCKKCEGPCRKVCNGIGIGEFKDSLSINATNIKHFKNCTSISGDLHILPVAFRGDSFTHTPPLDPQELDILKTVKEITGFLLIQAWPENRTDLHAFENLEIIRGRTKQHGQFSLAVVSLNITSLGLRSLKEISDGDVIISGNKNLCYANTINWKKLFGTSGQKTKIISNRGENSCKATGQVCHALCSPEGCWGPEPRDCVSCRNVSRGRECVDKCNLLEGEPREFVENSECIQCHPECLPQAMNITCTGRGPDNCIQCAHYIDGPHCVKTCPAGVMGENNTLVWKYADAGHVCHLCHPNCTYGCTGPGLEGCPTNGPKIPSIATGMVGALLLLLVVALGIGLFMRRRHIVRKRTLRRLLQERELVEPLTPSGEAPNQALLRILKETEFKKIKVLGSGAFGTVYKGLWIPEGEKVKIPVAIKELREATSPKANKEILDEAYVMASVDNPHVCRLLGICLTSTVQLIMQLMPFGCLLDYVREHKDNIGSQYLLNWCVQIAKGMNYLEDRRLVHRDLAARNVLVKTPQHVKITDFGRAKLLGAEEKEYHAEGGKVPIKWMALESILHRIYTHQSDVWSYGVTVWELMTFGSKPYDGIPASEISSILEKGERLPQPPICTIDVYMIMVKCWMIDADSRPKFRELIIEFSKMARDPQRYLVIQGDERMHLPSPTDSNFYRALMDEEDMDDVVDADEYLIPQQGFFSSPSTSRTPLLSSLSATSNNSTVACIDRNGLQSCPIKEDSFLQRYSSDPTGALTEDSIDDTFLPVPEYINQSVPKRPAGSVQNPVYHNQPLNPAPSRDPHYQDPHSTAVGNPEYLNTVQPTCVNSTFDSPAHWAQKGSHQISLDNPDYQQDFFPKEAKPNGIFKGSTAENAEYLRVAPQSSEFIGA

Row | Structure (SMILES) | IC50 [1] | IC50 [2] | IC50 [3] | IC50 [4] | IC50 [5] | IC50 [6] | Ratio IC50 [7]
1 | C=CC(=O)Nc1cccc(NC(=O)Nc2ccnc(Nc3ccc(N4CCN(C)CC4)cc3OC)n2)c1 | 17 nM | 906 nM | 17 nM | 525 nM | – | – | –
2 | C=CC(=O)Nc1cccc(NC(=O)Nc2ccnc(Nc3ccc(N4CCC(N5CCN(C)CC5)CC4)cc3OC)n2)c1 | 5 nM | 105 nM | 80 nM | 106 nM | 2340 nM | – | –
3 | C=CC(=O)Nc1cccc(NC(=O)Nc2nc(Nc3ccc(N4CCC(N5CCOCC5)CC4)cc3OC)ncc2C(F)(F)F)c1 | 270 nM | – | > 1000 nM | – | – | – | –
4 | C=CC(=O)Nc1cccc(NC(=O)Nc2ccnc(Nc3ccc(C4CCN(C)CC4)cc3)n2)c1 | 510 nM | – | > 1000 nM | – | – | – | –
5 | C=CC(=O)Nc1cccc(NC(=O)Nc2ccnc(Nc3ccc(C4CCN(C)CC4)cc3OC)n2)c1 | 28 nM | 130 nM | 273 nM | 75 nM | 5000 nM | > 10000 nM | –
6 | C=CC(=O)NC1CCCN(C(=O)Nc2ccnc(Nc3ccc(N4CCN(C)CC4)cc3OC)n2)C1 (centres undefined) | > 1000 nM | – | > 1000 nM | – | – | – | –
7 | C=CC(=O)Nc1cccc(NC(=O)Nc2ccnc(Nc3ccccc3OC)n2)c1 | 192 nM | – | > 1000 nM | – | – | – | –
8 | C=CC(=O)Nc1cccc(NC(=O)Nc2ccnc(Nc3ccc(C(=O)N4CCOCC4)cc3OC)n2)c1 | 128 nM | – | > 1000 nM | – | – | – | –
9 | C=CC(=O)Nc1cccc(NC(=O)Nc2ccnc(Nc3ccc(N(C)C)cc3)n2)c1 | 170 nM | – | 462 nM | – | – | – | –
11 | C=CC(=O)Nc1cccc(NC(=O)Nc2ccnc(Nc3ccc(N4CCN(CCF)CC4)cc3OC)n2)c1 | 22 nM | 511 nM | 158 nM | 519 nM | > 10000 nM | – | –
12 | C=CC(=O)Nc1cccc(NC(=O)Nc2ccnc(Nc3ccc(OC)cc3OC)n2)c1 | 58 nM | 391 nM | 348 nM | 467 nM | – | – | –
13 | C=CC(=O)Nc1cccc(NC(=O)Nc2ccnc(Nc3ccc(N4CCOCC4)cc3)n2)c1 | 87 nM | > 10000 nM | 644 nM | 7520 nM | > 10000 nM | > 10000 nM | –
14 | C=CC(=O)Nc1cccc(NC(=O)Nc2ccnc(Nc3ccc(N4CCOCC4)cc3OC)n2)c1 | 15 nM | 218 nM | 225 nM | 173 nM | > 10000 nM | – | –
15 | C=CC(=O)Nc1cccc(NC(=O)N(C)c2ccnc(Nc3ccc(N4CCN(C)CC4)cc3OC)n2)c1 | > 1000 nM | – | > 1000 nM | – | – | – | –
16 | C=CC(=O)Nc1cccc(NC(=O)Nc2ccnc(Nc3ccc(N(CC)CC)cc3OC)n2)c1 | 12 nM | 112 nM | 183 nM | 86 nM | > 10000 nM | > 10000 nM | –
17 | C=CC(=O)Nc1cccc(NC(=O)Nc2ccnc(Nc3ccc(N4CCN(C)CC4)cc3)n2)c1 | 48 nM | 3150 nM | 143 nM | 1930 nM | – | – | –
18 | C=CC(=O)Nc1cccc(NC(=O)Nc2ccnc(Nc3ccc(N(C)CCN(C)C)cc3OC)n2)c1 | 19 nM | 430 nM | 49 nM | 502 nM | 1700 nM | 3400 nM | –
19 | C=CC(=O)Nc1cccc(Oc2nc(Nc3ccc(N4CCN(C(C)=O)CC4)cc3OC)ncc2C(F)(F)F)c1 | 7 nM | 132 nM | 67 nM | 117 nM | 1030 nM | 2530 nM | –
20 | C=CC(=O)Nc1cccc(NC(=O)Nc2ccnc(Nc3ccc(N4CCC(N(CC)CC)CC4)cc3OC)n2)c1 | – | – | – | 31 nM | – | 2010 nM | –
21 | C=CC(=O)Nc1cccc(NC(=O)Nc2ccnc(Nc3ccc(N4CCC(N(C)C)CC4)cc3OC)n2)c1 | 2 nM | 82 nM | 45 nM | 107 nM | 1540 nM | 3380 nM | –
22 | C=CC(=O)Nc1cccc(NC(=O)C(C)(C)c2ccnc(Nc3ccc(N4CCN(C)CC4)cc3OC)n2)c1 | > 1000 nM | – | > 1000 nM | – | – | – | –
23 | C=CC(=O)Nc1cccc(NC(=O)Nc2ccnc(Nc3ccc(OCCOC)cc3)n2)c1 | 266 nM | – | > 1000 nM | – | – | – | –
24 | C=CC(=O)Nc1cccc(Oc2nc(Nc3ccc(N4CCN(C)CC4)cc3OC)ncc2Cl)c1 | – | – | – | 27 nM | – | 1240 nM | –
25 | C=CC(=O)Nc1cccc(NC(=O)Nc2nc(Nc3ccc(N4CCC(N5CCOCC5)CC4)cc3OC)ncc2Cl)c1 | 37 nM | 131 nM | 641 nM | 199 nM | 2210 nM | 2590 nM | –
26 | C=CC(=O)Nc1cccc(NC(=O)Nc2ccnc(Nc3ccc(C(=O)N4CCN(C)CC4)cc3OC)n2)c1 | 215 nM | – | 972 nM | – | – | – | –
27 | C=CC(=O)Nc1cccc(NC(=O)Nc2ccnc(Nc3ccc(N4CCC(N5CCOCC5)CC4)cc3OC)n2)c1 | 4 nM | 41 nM | 86 nM | 37 nM | 6460 nM | > 10000 nM | >270
28 | C=CC(=O)Nc1cccc(NC(=O)C2(C(=O)Nc3ccnc(Nc4ccc(N5CCN(C)CC5)cc4OC)n3)CC2)c1 | > 1000 nM | – | > 1000 nM | – | – | – | –
